In patent EP0476120B1, “PROCESS FOR PREPARING EQUIMOLAR SALTS OF ASPARTIC ACID AND MAGNESIUM, MAGNESIUM ASPARTATE SALT OBTAINED BY SAID PROCESS AND ITS APPLICATIONS” (LA[…] SPINDLER, priority 1990, dated 1991):
Where “and” joins values, the source holds several entries; their conditions need not be identical. Identical values can stand only once. Like-named read-outs stand apart in the source and are kept apart here.

Legend:
souris [1] = details: mouse; for animaux ne présentant pas de comportement anxiogène (miction, défécation): controls 20 %; for souris présentant une défécation et une miction émotionnelles: controls 85 p. 100
Experimental: (§1) Ces études ont été réalisées chez des souris mâles, de souche NMRI-Han, réparties au hasard en lots de 15 souris (séries traitées) et 20 souris (série contrôle).
Enfin, l'effet à l'égard des manifestations dites émotionnelles est mesuré sur la miction et la défécation au cours des 3 minutes passées dans le cylindre et permet le calcul d'une DA 50 dite "anti-émotionnelle".
(§2) Les doses ont été calculées selon une progression géométrique de base 700 (correspondant au 1/10 de la DL 50) et de raison 2, soit respectivement 175, 350, 700 et 1400 mg.kg⁻¹.
(§3) Les traitements sont réalisés 60 minutes avant le test.
(§4) Il est identique à celui décrit dans l'exemple précédent.
(§5) Les doses ont été calculées selon une progression géométrique de base 700 (correspondant au 1/10 de la DL 50) et de raison 2, soit respectivement 10,95; 21,9; 43,8; 87,5; 175; 350; 700 mg/kg. […] Les derniers traitements ont été réalisés 60 minutes avant le test.

souris [2] = details: for Animaux tombés (%): controls 20,0
Experimental: Le test dit du "rota-rod" permet de juger le tonus musculaire et la coordination motrice de souris placées sur une tige tournant à vitesse constante.
as §1
La DA 50 s'exprime par la dose qui provoque en moins de 3 minutes la chute de 50 p. 100 des souris placées sur une tige en bois tournant à une vitesse de 16 tours/min (diamètre 1,7 cm). Ce test qui permet de juger de la coordination motrice des souris est adapté de la technique décrite par N.W. DUNHAN and T.S. MIYA (J. Am. Pharm. Assoc. 1957, 46 : 208)
as §2, §3, §4, §5

α-β-aspartate de magnésium
DA 50 (enceinte anxiogène, sujets ne présentant pas de comportement anxieux) (souris [1]; repeated administration over 13 days P.O., limits 11,26 - 68,66 mg/kg): 27,8 mg/kg and 28 mg/kg and 27,81 mg/kg | animaux ne présentant pas de comportement anxiogène (miction, défécation) (souris [1]; repeated dosing (13 days), 175 mg/kg P.O.): 73,3% | animaux ne présentant pas de comportement anxiogène (miction, défécation) (souris [1]; repeated dosing (13 days), 350 mg/kg P.O.): 60% | animaux ne présentant pas de comportement anxiogène (miction, défécation) (souris [1]; repeated dosing (13 days), 700 mg/kg P.O.): 66,7% | animaux ne présentant pas de comportement anxiogène (miction, défécation) (souris [1]; repeated dosing (13 days), 10,95 mg/kg P.O.): 40% | animaux ne présentant pas de comportement anxiogène (miction, défécation) (souris [1]; repeated dosing (13 days), 21,9 mg/kg P.O.): 40% | animaux ne présentant pas de comportement anxiogène (miction, défécation) (souris [1]; repeated dosing (13 days), 43,8 mg/kg P.O.): 60% | animaux ne présentant pas de comportement anxiogène (miction, défécation) (souris [1]; repeated dosing (13 days), 87,5 mg/kg P.O.): 66,7% | souris présentant une défécation et une miction émotionnelles (souris [1]; single dose 175 mg.kg⁻¹ P.O.): 40% | souris présentant une défécation et une miction émotionnelles (souris [1]; single dose 350 mg.kg⁻¹ P.O.): 53% | souris présentant une défécation et une miction émotionnelles (souris [1]; single dose 700 mg.kg⁻¹ P.O.): 27% | souris présentant une défécation et une miction émotionnelles (souris [1]; single dose 1400 mg.kg⁻¹ P.O.): 73% | DA 50 "anti-émotionnelle" (souris [1]; single dose P.O., confidence limits (5 p. 100) 160 - 2082 mg.kg⁻¹): 577 mg/kg | Animaux tombés (%) (souris [2]; mouse, 10,95 mg.kg⁻¹ P.O x13): 26,6% | Animaux tombés (%) (souris [2]; mouse, 21,9 mg.kg⁻¹ P.O x13): 33,3% | Animaux tombés (%) (souris [2]; mouse, 43,8 mg.kg⁻¹ P.O x13): 46,6% | Animaux tombés (%) (souris [2]; mouse, 67,5 mg.kg⁻¹ P.O x13): 33,3% | Animaux tombés (%) (souris [2]; mouse, 175,0 mg.kg⁻¹ P.O x13): 46,6% | Animaux tombés (%) (souris [2]; mouse, 350,0 mg.kg⁻¹ P.O x13): 33,3% | Animaux tombés (%) (souris [2]; mouse, 700,0 mg.kg⁻¹ P.O x13): 33,3% | souris qui chutent de la tige tournante au cours des 3 minutes (souris [2]; mouse, single dose 175 mg.kg⁻¹ P.O., controls 25 %): 13% | DA 50 (réduction du tonus musculaire, rota-rod) (souris [2]; mouse, single dose P.O., Litchfield-Wilcoxon, confidence limits (5 p. 100) 343 - 1091 mg.kg⁻¹): 612 mg/kg
